pEC50: −log10 of the molar value. *1 amine or outer side, *2 acyl side, *3 side chain or, on linkers, in order; H or OH if unused. Where a SMILES comes first, the peptide text is derived from it. Side-chain parts run from the residue outwards. [ ]: non-standard residue; d: D form. The star is where a group is joined. γGlu = O=C(O)[C@H](CCC(=O)[*:2])N[*:1]; Palmitoyl = CCCCCCCCCCCCCCCC(=O)*; Nva = CCC[C@H](N)C(=O)O; Aib = CC(C)(N)C(=O)O

Common to all, as to type: cell-based
Test [1] deals with T1, GLP-1 receptor (Homo sapiens, UniProt P43220).
T1 construct: expressed in transfected cells; host or cells: HEK293
The test is described as follows: cAMP induction, firefly luciferase-based reporter assay in HEK293 cells co-transfected with GLP-1 receptor. Particulars: EC50 at GLP-1 Receptor. An excerpt:
(§1) This example describes an exemplary method of testing the biological activity of the peptides of the present disclosures, which method involves assaying cAMP synthesis.
In general terms: A reporter such as luciferase makes a cellular process visible.

Test [2] addresses T2, GIP receptor (Homo sapiens, UniProt P48546).
T2 construct: expressed in transfected cells; host or cells: HEK293
T2 sequence (P48546 22-466): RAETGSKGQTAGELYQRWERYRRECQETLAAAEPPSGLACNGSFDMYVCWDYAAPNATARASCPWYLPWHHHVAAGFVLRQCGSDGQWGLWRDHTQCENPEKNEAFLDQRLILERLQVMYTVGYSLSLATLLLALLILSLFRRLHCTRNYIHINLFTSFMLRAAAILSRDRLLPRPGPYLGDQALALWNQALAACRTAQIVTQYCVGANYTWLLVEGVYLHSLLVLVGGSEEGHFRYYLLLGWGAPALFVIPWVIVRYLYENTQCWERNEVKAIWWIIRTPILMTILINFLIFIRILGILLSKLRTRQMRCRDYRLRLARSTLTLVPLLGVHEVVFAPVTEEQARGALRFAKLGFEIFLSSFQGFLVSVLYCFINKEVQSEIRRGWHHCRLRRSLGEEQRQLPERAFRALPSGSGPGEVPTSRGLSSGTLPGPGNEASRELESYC
The test is described as follows: cAMP induction, firefly luciferase-based reporter assay in HEK293 cells co-transfected with GIP receptor. The note with it: EC50 at GIP Receptor.
Excerpt: as §1

Test [3] addresses T3, glucagon receptor (Homo sapiens, UniProt P47871).
T3 construct: expressed in transfected cells; host or cells: HEK293
Description: cAMP induction, firefly luciferase-based reporter assay in HEK293 cells co-transfected with glucagon receptor. The note with it: EC50 at Glucagon Receptor.
Excerpt: as §1

Setting [4] is: Table 2, analogs of SEQ ID NO: 18 varying at positions 16-21.
[5] abbreviates: Table 3, analogs of SEQ ID NO: 18 varying at position 3.
Where [6] appears, read: Table 5, analogs of SEQ ID NO: 10.

T3 sequence (P47871 26-477): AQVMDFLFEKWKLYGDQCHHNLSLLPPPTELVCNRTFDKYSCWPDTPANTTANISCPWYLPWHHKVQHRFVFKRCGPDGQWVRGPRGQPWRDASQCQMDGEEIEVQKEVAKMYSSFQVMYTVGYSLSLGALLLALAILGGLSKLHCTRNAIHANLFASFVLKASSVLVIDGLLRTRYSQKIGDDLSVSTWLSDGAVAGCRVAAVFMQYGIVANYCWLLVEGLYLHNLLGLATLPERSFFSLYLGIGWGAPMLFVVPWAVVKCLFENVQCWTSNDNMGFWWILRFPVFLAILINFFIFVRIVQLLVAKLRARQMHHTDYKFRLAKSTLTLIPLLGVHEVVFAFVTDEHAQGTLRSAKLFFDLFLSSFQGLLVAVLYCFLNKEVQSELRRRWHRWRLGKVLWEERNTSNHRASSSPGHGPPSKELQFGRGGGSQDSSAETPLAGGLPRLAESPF
T1 sequence (P43220 24-463): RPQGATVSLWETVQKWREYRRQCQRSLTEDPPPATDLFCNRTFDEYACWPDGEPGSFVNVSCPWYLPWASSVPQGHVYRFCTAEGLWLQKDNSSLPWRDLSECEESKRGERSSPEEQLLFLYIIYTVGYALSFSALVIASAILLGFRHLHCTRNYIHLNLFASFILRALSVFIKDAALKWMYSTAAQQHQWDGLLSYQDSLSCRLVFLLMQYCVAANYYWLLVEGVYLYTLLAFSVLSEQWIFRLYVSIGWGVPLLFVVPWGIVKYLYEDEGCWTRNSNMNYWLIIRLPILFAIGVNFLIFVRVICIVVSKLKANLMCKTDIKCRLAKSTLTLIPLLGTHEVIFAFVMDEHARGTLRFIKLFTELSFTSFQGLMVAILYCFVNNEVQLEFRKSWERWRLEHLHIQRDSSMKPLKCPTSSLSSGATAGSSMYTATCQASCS

As for `CCCCCCCCCCCCCCCC(=O)N[C@@H](CCC(=O)NCCCC[C@H](NC(=O)[C@H](CC(=O)O)NC(=O)[C@H](CO)NC(=O)[C@@H](NC(=O)[C@H](Cc1ccccc1)NC(=O)[C@@H](NC(=O)CNC(=O)[C@H](CCC(N)=O)NC(=O)C(C)(C)NC(=O)[C@@H](N)Cc1c[nH]cn1)[C@@H](C)O)[C@@H](C)O)C(=O)N[C@@H](CO)C(=O)N[C@@H](CCCCN)C(=O)N[C@@H](Cc1ccc(O)cc1)C(=O)N[C@@H](CC(C)C)C(=O)N[C@@H](CC(=O)O)C(=O)NC(C)(C)C(=O)N[C@@H](CCCNC(=N)N)C(=O)N[C@@H](C)C(=O)N[C@@H](C)C(=O)NC(C)(C)C(=O)N[C@@H](CCC(=O)O)C(=O)N[C@@H](Cc1ccccc1)C(=O)N[C@H](C(=O)N[C@@H](CCC(N)=O)C(=O)N[C@@H](Cc1c[nH]c2ccccc12)C(=O)N[C@@H](CC(C)C)C(=O)N[C@@H](CC(C)C)C(=O)N[C@@H](CC(=O)O)C(=O)NCC(=O)NCC(=O)N1CCC[C@H]1C(=O)N[C@@H](CO)C(=O)N[C@@H](CO)C(=O)NCC(=O)N[C@@H](C)C(=O)N1CCC[C@H]1C(=O)N1CCC[C@H]1C(=O)N1CCC[C@H]1C(=O)N[C@@H](CO)C(N)=O)C(C)C)C(=O)O` [compound 24] (H-H[Aib]QGTFTSDK([γGlu-Palmitoyl])SKYLD[Aib]RAA[Aib]EFVQWLLDGGPSSGAPPPS-NH2), the pEC50 in test [1] (setting [4]) is 11.00; in test [2] (setting [4]), 11.30; in test [3] (setting [4]) it was 11.70.
For the compound `CCCCCCCCCCCCCCCC(=O)N[C@@H](CCC(=O)NCCCC[C@H](NC(=O)[C@H](CC(=O)O)NC(=O)[C@H](CO)NC(=O)[C@@H](NC(=O)[C@H](Cc1ccccc1)NC(=O)[C@@H](NC(=O)CNC(=O)[C@H](CCC(N)=O)NC(=O)C(C)(C)NC(=O)[C@@H](N)Cc1c[nH]cn1)[C@@H](C)O)[C@@H](C)O)C(=O)N[C@@H](CO)C(=O)N[C@@H](CCCCN)C(=O)N[C@@H](Cc1ccc(O)cc1)C(=O)N[C@@H](CC(C)C)C(=O)N[C@@H](CC(=O)O)C(=O)N[C@@H](CCC(=O)O)C(=O)N[C@@H](CCCNC(=N)N)C(=O)N[C@@H](C)C(=O)N[C@@H](C)C(=O)NC(C)(C)C(=O)N[C@@H](CCC(=O)O)C(=O)N[C@@H](Cc1ccccc1)C(=O)N[C@H](C(=O)N[C@@H](CCC(N)=O)C(=O)N[C@@H](Cc1c[nH]c2ccccc12)C(=O)N[C@@H](CC(C)C)C(=O)N[C@@H](CC(C)C)C(=O)N[C@@H](CC(=O)O)C(=O)NCC(=O)NCC(=O)N1CCC[C@H]1C(=O)N[C@@H](CO)C(=O)N[C@@H](CO)C(=O)NCC(=O)N[C@@H](C)C(=O)N1CCC[C@H]1C(=O)N1CCC[C@H]1C(=O)N1CCC[C@H]1C(=O)N[C@@H](CO)C(N)=O)C(C)C)C(=O)O` [compound 21] (H-H[Aib]QGTFTSDK([γGlu-Palmitoyl])SKYLDERAA[Aib]EFVQWLLDGGPSSGAPPPS-NH2; N-terminus assumed), the pEC50 is 11.40 in test [1] (setting [4]), 12.00 in test [2] (setting [4]) and 11.70 in test [3] (setting [4]).
Regarding `CCCCCCCCCCCCCCCC(=O)N[C@@H](CCC(=O)NCCCC[C@H](NC(=O)[C@H](CC(=O)O)NC(=O)[C@H](CO)NC(=O)[C@@H](NC(=O)[C@H](Cc1ccccc1)NC(=O)[C@@H](NC(=O)CNC(=O)[C@H](CCC)NC(=O)C(C)(C)NC(=O)[C@@H](N)Cc1c[nH]cn1)[C@@H](C)O)[C@@H](C)O)C(=O)N[C@@H](CO)C(=O)N[C@@H](CCCCN)C(=O)N[C@@H](Cc1ccc(O)cc1)C(=O)N[C@@H](CC(C)C)C(=O)N[C@@H](CCC(=O)O)C(=O)N[C@@H](CCC(=O)O)C(=O)N[C@@H](CCCNC(=N)N)C(=O)N[C@@H](C)C(=O)N[C@@H](C)C(=O)N[C@@H](CCC(N)=O)C(=O)N[C@@H](CCC(=O)O)C(=O)N[C@@H](Cc1ccccc1)C(=O)N[C@H](C(=O)N[C@@H](CCC(N)=O)C(=O)N[C@@H](Cc1c[nH]c2ccccc12)C(=O)N[C@@H](CC(C)C)C(=O)N[C@@H](CC(C)C)C(=O)N[C@@H](CCC(=O)O)C(=O)NCC(=O)NCC(=O)N1CCC[C@H]1C(=O)N[C@@H](CO)C(=O)N[C@@H](CO)C(=O)NCC(=O)N[C@@H](C)C(=O)N1CCC[C@H]1C(=O)N1CCC[C@H]1C(=O)N1CCC[C@H]1C(=O)N[C@@H](CO)C(N)=O)C(C)C)C(=O)O` [compound 38] (H-H[Aib][Nva]GTFTSDK([γGlu-Palmitoyl])SKYLEERAAQEFVQWLLEGGPSSGAPPPS-NH2; N-terminus assumed), the values for the pEC50 in test [1] (setting [5]), in test [2] (setting [5]) and in test [3] (setting [5]) were 11.70, 11.40 and 10.26, respectively.
Regarding `CCCCCCCCCCCCCCCC(=O)N[C@@H](CCC(=O)NCCCC[C@H](NC(=O)[C@H](CC(=O)O)NC(=O)[C@H](CO)NC(=O)[C@@H](NC(=O)[C@H](Cc1ccccc1)NC(=O)[C@@H](NC(=O)CNC(=O)[C@H](CCC(N)=O)NC(=O)C(C)(C)NC(=O)[C@@H](N)Cc1c[nH]cn1)[C@@H](C)O)[C@@H](C)O)C(=O)N[C@@H](CO)C(=O)N[C@@H](CCCCN)C(=O)N[C@@H](Cc1ccc(O)cc1)C(=O)N[C@@H](CC(C)C)C(=O)N[C@@H](CC(=O)O)C(=O)N[C@@H](CCC(=O)O)C(=O)N[C@@H](CCCNC(=N)N)C(=O)N[C@@H](C)C(=O)NC(C)(C)C(=O)N[C@@H](CCCCN)C(=O)N[C@@H](CCC(=O)O)C(=O)N[C@@H](Cc1ccccc1)C(=O)N[C@H](C(=O)N[C@@H](CCC(N)=O)C(=O)N[C@@H](Cc1c[nH]c2ccccc12)C(=O)N[C@@H](CC(C)C)C(=O)N[C@@H](CC(C)C)C(=O)N[C@@H](CC(=O)O)C(=O)NCC(=O)NCC(=O)N1CCC[C@H]1C(=O)N[C@@H](CO)C(=O)N[C@@H](CO)C(=O)NCC(=O)N[C@@H](C)C(=O)N1CCC[C@H]1C(=O)N1CCC[C@H]1C(=O)N1CCC[C@H]1C(=O)N[C@@H](CO)C(N)=O)C(C)C)C(=O)O` [compound 27] (H-H[Aib]QGTFTSDK([γGlu-Palmitoyl])SKYLDERA[Aib]KEFVQWLLDGGPSSGAPPPS-NH2), the figures for the pEC50 in test [1] (setting [4]), in test [2] (setting [4]) and in test [3] (setting [4]) were 11.70, 11.40 and 9.78, respectively.
Regarding `CCCCCCCCCCCCCCCC(=O)N[C@@H](CCC(=O)NCCCC[C@H](NC(=O)[C@H](CC(=O)O)NC(=O)[C@H](CO)NC(=O)[C@@H](NC(=O)[C@H](Cc1ccccc1)NC(=O)[C@@H](NC(=O)CNC(=O)[C@H](CCC(N)=O)NC(=O)C(C)(C)NC(=O)[C@@H](N)Cc1c[nH]cn1)[C@@H](C)O)[C@@H](C)O)C(=O)N[C@@H](CO)C(=O)N[C@@H](CCCCN)C(=O)N[C@@H](Cc1ccc(O)cc1)C(=O)N[C@@H](CC(C)C)C(=O)N[C@@H](CC(=O)O)C(=O)N[C@@H](CCC(=O)O)C(=O)N[C@@H](CCCNC(=N)N)C(=O)N[C@@H](C)C(=O)N[C@@H](C)C(=O)N[C@@H](CCC(N)=O)C(=O)N[C@@H](CC(=O)O)C(=O)N[C@@H](Cc1ccccc1)C(=O)N[C@H](C(=O)N[C@@H](CCC(N)=O)C(=O)N[C@@H](Cc1c[nH]c2ccccc12)C(=O)N[C@@H](CC(C)C)C(=O)N[C@@H](CC(C)C)C(=O)N[C@@H](CC(=O)O)C(=O)NC(C)(C)C(=O)NCC(=O)N1CCC[C@H]1C(=O)N[C@@H](CO)C(=O)N[C@@H](CO)C(=O)NCC(=O)N[C@@H](C)C(=O)N1CCC[C@H]1C(=O)N1CCC[C@H]1C(=O)N1CCC[C@H]1C(=O)N[C@@H](CO)C(N)=O)C(C)C)C(=O)O` [compound 65] (H-H[Aib]QGTFTSDK([γGlu-Palmitoyl])SKYLDERAAQDFVQWLLD[Aib]GPSSGAPPPS-NH2; N-terminus assumed), the negative-log EC50 (pEC50) in test [1] (setting [6]) is 11.52; in test [2] (setting [6]) it was 11.30; in test [3] (setting [6]), 11.70.

In general, pEC50 refers to −log10 of the EC50, conventionally taken in molar units.
